Results: US20230265116A1, “DEGRADATION OF (EGFR) BY CONJUGATION OF EGFR INHIBITORS WITH E3 LIGASE LIGAND AND METHODS OF USE” (BEIGENE, LTD., priority 2020, published 2023)

How the values were obtained:
Assay type in all cases: cell-based
EGFR (HCC827 cells) = target: T1, EGFR (HCC827 cells) (Homo sapiens, UniProt P00533, DEL746-750); assay: EGFR degradation HTRF assay, HCC827 cells; conditions: HCC827, 16h treatment; for Dmax: maximum percentage of degradation
T1 construct: endogenous in cells; host or cells: HCC827
Outline: (§1)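 Cells treated 16 h at 37 °C, 5% CO2 in medium with 0.2% DMSO; top final concentration 10 uM, 5-fold dilution, 8 doses. Lysates read by HTRF (665/620 nm); degradation % versus DMSO high control, DC50 from four-parameter fit, Dmax as maximal degradation.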

[1] = target: T2, EGFR L858R/T790M/C797S (BaF3-LTC cells) (Homo sapiens, UniProt P00533, C797S/L858R/T790M); assay: EGFR degradation HTRF assay, BaF3-LTC cells; conditions: BaF3-LTC, 16h treatment; for Dmax: maximum percentage of degradation, read-out: LTC Dmax (%); for DC50: read-out: LTC DC50
T2 construct: expressed in transfected cells; host or cells: BaF3
Outline: as §1

[2] = tested on: EGFR Del19/T790M/C797S (BaF3-DTC cells); assay: EGFR degradation HTRF assay, BaF3-DTC cells; conditions: 16h treatment; for DTC Dmax (%): maximum percentage of degradation; for DC50: read-out: DTC DC50
Outline: as §1

[3] = target: T3, EGFR L858R/T790M (H1975-clone #36, homozygous) (Homo sapiens, UniProt P00533, L858R/T790M); assay: EGFR degradation HTRF assay, H1975-clone #36 cells; conditions: H1975 #36, 16h treatment; for Dmax: NCI-H1975, maximum percentage of degradation
T3 construct: designed to specifically target WT EGFR but preserve the L858R/T790M copy; host or cells: H1975-clone #36
Outline: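 H1975 clone #36, made homozygous for L858R/T790M EGFR by knockout of the WT allele, treated 16 h at 37 °C with compound in 0.2% DMSO medium. Eight doses from 10 uM, 5-fold dilutions. EGFR measured by HTRF in lysates. DC50 and Dmax fitted against DMSO controls.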

[4] = tested on: EGFR Del19/C797S (H1975-clone #23); assay: EGFR degradation HTRF assay, H1975-clone #23 DC cells; conditions: 16h treatment
Description: H1975-clone #28(Del19/T790M/C797S) and H1975-clone #23(Del19/C797S). EGFR-Del19/T790M/C797S and EGFR-Del19/C797S were stably expressed in H1975 cell lines by lentivirus-mediated over-expression, respectively. The EGFR over-expressed cells then underwent gene knockout, in which the EGFR targeting sgRNA was designed to only target the endogenous EGFR copies and preserve the exogenous EGFR copies. Followed by the gene knockout, the edited H1975 cells were seeded in 96 well plates at the concentration of 1 cell/well, cultured for about 2 weeks to allow single clones formation. The formed clones were screened by DNA sequencing and whole exon sequencing analysis for the desired edition. H1975-clone #28 and H1975-clone #23 were finally confirmed as homozygous Del19/T790M/C797S EGFR and Del19/C797S EGFR clones, respectively.
BaF3 WT(wild type), BaF3-LTC(L858R/T790M/C797S) and BaF3-DTC(Del19/T790M/C797S) cells are treated with compounds diluted in 0.2% DMSO cell culture medium and incubate for 16h, 37° C., 5% CO2, H1975-#36, H1975-#28, H1975-#23 and HCC827 cells are treated with compounds diluted in 0.2% DMSO cell culture medium on day 2, incubate for 16h, 37° C., 5% CO2.the final concentriation of compounds in all assay is start with 10 uM, 5-fold dilution, total 8 doses were included.
After 16h treatment, add HTRF lysis buffer to each well; seal the plate and incubate 1 hour at room temperature on a plate shaker; Once the cells are lysed, 16 μL of cell lysate are transferred to a PE 384-well HTRF detection plate; 4 μL of pre-mixed HTRF antibodies are added to each well; Cover the plate with a plate sealer, spin 1000 rpm for 1 min, Incubate overnight at room temperature; Read on BMG PheraStar with HTRF protocol (337 nm-665 nm-620 nm).
The inhibition (degradation) percentage of the compound was calculated by the following equation: Inhibition percentage of Compound=100-100×(Signal-low control)/(High control-low control), wherein signal=each test compound group
High control=Cell group with added DMSO and without compound, indicating microplate readings without EGFR degradation;
Dmax is the maximum percentage of inhibition (degradation).
The IC50 (DC50) value of a compound can be obtained by fitting the following equation
Y=Bottom+(TOP−Bottom)/(1+((IC50/X)^hillslope))
Wherein, X and Y are known values, and IC50, Hillslope, Top and Bottom are the parameters obtained by fitting with software. Y is the inhibition percentage (calculated from the equation), X is the concentration of the compound; IC50 is the concentration of the compound when the 50% inhibition is reached. The smaller the IC50 value is, the stronger the inhibitory ability of the compound is. Vice versa, the higher the IC50 value is, the weaker the inhibitory ability of the compound is; Hillslope represents the slope of the fitted curve, generally around 1*; Bottom represents the minimum value of the curve obtained by data fitting, which is generally 0%±20%; Top represents the maximum value of the curve obtained by data fitting, which is generally 100%±20%. The experimental data were fitted by calculating and analyzing with Dotmatics data analysis software.

[5] = target: T4, EGFR L858R/C797S (BaF3 LC cells) (Homo sapiens, UniProt P00533, C797S/L858R); assay: EGFR degradation HTRF assay, BaF3 LC cells; conditions: BaF3 LC, 16h treatment
T4 construct: expressed in transfected cells; host or cells: BaF3
T4 sequence (P00533 25-1210 C797S/L858R): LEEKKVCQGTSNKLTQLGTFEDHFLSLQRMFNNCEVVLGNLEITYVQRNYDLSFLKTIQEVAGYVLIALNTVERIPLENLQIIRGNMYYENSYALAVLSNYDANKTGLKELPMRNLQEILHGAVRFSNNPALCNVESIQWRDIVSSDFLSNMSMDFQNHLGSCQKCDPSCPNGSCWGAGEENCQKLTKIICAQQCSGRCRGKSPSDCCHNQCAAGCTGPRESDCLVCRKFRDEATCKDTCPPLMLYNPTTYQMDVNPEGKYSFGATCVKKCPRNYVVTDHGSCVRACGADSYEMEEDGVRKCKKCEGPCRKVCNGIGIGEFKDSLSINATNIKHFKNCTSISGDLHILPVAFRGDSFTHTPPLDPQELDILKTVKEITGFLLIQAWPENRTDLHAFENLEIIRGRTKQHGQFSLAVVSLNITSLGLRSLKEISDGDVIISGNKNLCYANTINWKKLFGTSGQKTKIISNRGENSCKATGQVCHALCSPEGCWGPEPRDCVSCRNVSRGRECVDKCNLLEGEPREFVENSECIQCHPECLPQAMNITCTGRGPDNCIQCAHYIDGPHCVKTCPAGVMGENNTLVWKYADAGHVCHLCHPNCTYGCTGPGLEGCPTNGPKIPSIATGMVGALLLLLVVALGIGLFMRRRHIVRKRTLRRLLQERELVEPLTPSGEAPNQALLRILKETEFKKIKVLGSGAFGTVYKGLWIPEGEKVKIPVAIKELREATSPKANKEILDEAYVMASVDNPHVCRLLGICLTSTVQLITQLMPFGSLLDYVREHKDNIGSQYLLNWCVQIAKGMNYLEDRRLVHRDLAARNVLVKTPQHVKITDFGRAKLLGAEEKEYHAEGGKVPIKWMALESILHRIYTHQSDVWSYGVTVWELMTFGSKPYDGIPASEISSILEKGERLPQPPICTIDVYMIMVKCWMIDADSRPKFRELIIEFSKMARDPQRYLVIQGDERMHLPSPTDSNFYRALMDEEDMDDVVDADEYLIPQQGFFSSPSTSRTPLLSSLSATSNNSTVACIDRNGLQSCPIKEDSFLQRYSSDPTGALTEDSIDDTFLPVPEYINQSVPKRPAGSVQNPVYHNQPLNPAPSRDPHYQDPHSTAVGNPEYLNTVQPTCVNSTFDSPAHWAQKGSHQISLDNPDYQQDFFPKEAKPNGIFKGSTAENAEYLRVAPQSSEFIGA

T2 sequence (P00533 25-1210 T790M/C797S/L858R): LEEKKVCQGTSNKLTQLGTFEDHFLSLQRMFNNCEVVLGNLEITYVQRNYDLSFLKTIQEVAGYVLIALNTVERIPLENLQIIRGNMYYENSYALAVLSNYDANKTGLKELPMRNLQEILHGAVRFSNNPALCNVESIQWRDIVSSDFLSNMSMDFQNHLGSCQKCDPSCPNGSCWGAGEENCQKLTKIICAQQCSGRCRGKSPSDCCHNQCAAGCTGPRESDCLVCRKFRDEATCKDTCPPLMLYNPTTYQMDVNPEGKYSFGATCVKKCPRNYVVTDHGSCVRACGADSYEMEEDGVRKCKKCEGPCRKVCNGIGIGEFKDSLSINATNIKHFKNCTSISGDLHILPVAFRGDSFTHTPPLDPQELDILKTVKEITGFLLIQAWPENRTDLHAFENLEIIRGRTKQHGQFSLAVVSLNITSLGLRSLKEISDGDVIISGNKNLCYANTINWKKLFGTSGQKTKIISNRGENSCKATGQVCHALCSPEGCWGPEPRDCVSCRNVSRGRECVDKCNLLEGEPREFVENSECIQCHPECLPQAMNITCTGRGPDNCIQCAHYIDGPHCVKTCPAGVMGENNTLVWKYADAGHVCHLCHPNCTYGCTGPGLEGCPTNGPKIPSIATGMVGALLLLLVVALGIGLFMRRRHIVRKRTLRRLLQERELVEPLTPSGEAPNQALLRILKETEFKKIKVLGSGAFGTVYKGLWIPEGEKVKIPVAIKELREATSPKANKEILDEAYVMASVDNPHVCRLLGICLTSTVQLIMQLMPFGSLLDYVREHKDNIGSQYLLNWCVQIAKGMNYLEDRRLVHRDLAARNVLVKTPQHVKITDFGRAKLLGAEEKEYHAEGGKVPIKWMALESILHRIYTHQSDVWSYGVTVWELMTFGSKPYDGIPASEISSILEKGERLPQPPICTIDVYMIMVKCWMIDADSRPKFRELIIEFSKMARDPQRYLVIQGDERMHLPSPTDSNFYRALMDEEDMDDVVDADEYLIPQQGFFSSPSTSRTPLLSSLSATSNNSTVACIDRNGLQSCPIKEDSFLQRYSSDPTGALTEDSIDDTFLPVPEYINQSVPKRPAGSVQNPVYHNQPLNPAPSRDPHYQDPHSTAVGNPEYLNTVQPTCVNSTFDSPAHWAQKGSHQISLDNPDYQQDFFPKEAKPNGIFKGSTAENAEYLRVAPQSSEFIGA
T3 sequence (P00533 25-1210 T790M/L858R): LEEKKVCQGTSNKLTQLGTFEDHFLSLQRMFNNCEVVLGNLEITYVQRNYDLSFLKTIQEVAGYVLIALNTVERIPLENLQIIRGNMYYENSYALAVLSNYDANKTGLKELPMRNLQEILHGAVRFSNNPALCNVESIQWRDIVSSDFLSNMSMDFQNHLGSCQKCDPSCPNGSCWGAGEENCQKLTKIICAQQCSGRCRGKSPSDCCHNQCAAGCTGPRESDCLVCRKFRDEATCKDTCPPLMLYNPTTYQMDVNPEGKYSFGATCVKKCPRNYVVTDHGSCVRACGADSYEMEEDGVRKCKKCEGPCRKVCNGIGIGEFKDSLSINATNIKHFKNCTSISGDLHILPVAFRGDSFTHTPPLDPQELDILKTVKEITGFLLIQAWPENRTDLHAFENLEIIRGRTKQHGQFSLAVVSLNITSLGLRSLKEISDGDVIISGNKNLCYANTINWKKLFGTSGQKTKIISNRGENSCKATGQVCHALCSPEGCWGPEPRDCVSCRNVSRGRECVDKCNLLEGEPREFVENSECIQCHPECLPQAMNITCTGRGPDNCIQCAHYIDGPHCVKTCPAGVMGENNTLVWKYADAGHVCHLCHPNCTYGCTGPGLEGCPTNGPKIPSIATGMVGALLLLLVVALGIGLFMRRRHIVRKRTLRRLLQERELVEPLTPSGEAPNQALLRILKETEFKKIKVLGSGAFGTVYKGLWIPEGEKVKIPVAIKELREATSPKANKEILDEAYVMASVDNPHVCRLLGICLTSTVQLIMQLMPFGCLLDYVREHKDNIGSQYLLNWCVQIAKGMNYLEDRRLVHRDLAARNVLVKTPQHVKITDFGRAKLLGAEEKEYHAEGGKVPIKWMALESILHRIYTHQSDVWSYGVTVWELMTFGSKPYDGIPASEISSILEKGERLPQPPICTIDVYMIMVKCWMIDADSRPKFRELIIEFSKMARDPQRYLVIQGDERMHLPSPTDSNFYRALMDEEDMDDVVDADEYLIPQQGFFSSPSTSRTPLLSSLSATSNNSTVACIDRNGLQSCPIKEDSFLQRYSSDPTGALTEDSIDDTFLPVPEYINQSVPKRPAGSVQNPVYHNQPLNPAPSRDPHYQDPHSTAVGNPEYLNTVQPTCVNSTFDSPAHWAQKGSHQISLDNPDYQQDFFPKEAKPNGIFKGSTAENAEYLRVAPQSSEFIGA
T1 sequence (P00533 with tags, fused parts or gaps DEL746-750): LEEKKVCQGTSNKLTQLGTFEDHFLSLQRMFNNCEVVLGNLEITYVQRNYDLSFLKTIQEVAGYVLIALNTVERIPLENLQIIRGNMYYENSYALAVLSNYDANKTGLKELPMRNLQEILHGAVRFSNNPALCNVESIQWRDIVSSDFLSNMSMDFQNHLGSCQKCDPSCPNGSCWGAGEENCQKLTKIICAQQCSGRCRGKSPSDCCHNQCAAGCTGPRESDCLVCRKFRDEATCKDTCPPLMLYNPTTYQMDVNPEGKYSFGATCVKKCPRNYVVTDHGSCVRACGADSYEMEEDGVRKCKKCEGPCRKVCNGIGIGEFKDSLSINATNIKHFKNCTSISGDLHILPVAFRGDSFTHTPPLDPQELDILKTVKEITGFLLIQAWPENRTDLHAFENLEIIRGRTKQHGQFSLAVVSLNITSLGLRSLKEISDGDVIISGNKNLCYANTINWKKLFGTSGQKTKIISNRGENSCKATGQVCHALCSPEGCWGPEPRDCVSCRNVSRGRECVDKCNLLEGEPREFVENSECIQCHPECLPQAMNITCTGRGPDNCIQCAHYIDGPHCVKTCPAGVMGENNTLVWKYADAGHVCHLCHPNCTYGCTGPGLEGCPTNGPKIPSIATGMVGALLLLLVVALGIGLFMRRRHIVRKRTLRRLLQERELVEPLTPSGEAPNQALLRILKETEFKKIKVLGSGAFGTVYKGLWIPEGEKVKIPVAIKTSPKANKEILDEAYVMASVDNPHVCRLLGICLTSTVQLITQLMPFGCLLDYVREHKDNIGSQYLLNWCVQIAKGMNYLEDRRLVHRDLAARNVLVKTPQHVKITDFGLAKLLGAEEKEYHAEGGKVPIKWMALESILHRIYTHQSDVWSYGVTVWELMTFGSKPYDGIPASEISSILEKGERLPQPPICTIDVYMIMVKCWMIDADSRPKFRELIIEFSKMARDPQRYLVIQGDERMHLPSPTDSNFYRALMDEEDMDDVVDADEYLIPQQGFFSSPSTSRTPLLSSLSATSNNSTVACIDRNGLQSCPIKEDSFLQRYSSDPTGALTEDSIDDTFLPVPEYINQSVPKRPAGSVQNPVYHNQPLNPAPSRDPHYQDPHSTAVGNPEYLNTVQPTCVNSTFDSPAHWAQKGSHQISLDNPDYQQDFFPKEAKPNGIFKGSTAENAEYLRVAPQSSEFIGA

SMILES	DC50 (EGFR (HCC827 cells)) [nM]	Dmax (EGFR (HCC827 cells)) [%]	Dmax [1] [%]	DC50 [1] [nM]	DTC Dmax (%) [2] [%]	DC50 [2] [nM]	DC50 [3] [nM]	Dmax [3] [%]	H1975 #23 DC Dmax (%) ([4]; maximum percentage of degradation)	DC50 ([4]; H1975 #23 DC, read-out: H1975 #23 DC DC50) [nM]	Dmax ([5]; maximum percentage of degradation, read-out: BaF3 LC Dmax (%)) [%]	DC50 ([5]; read-out: BaF3 LC DC50) [nM]
CCc1cc(Nc2ncc(Br)c(Nc3ccc4nccnc4c3P(C)(C)=O)n2)c(OC)cc1N1CCC(N2CCN(CC3CN(c4ccc5c(c4)CN(C4CCC(=O)NC4=O)C5=O)C3)CC2)CC1 (stereo not drawn) [Example 160, 3-(5-(3-((4-(1-(4-((5-bromo-4-((5-(dimethylphosphoryl)quinoxalin-6-yl)amino)pyrimidin-2-yl)amino)-2-ethyl-5-methoxyphenyl)piperidin-4-yl)piperazin-1-yl)methyl)azetidin-1-yl)-1-oxoisoindolin-2-yl)piperidine-2,6-dione]	2.69	81.7	92.9	18.1	94.14	6.95	3.07	76.8	–	–	–	–
CCc1cc(Nc2ncc(Br)c(Nc3ccc4nccnc4c3P(C)(C)=O)n2)c(OC)cc1N1CCC(N2CCN(CC3CCN(c4ccc(C5CCC(=O)NC5=O)cc4)C3)CC2)CC1 (stereo not drawn) [Example 168, 3-(4-(3-((4-(1-(4-((5-bromo-4-((5-(dimethylphosphoryl)quinoxalin-6-yl)amino)pyrimidin-2-yl)amino)-2-ethyl-5-methoxyphenyl)piperidin-4-yl)piperazin-1-yl)methyl)pyrrolidin-1-yl)phenyl)piperidine-2,6-dione]	4.85	81.2	86.4	47	88.5	22.4	1.61	62.4	–	–	–	–
CCc1cc(Nc2ncc(Br)c(Nc3ccc4nccnc4c3P(C)(C)=O)n2)c(OC)cc1N1CCC(N2CCN(C(=O)C3CCN(c4ccc5c(c4)C(=O)N(C4CCC(=O)NC4=O)C5=O)CC3)CC2)CC1 (stereo not drawn) [Example 67, 5-(4-(4-(1-(4-((5-bromo-4-((5-(dimethylphosphoryl)quinoxalin-6-yl)amino)pyrimidin-2-yl)amino)-2-ethyl-5-methoxyphenyl)piperidin-4-yl)piperazine-1-carbonyl)piperidin-1-yl)-2-(2,6-dioxopiperidin-3-yl)isoindoline-1,3-dione]	6.2	76.7	87.9	13.3	94.22	4.71	9.74	74.8	–	–	–	–
CCc1cc(Nc2ncc(Br)c(Nc3ccc4c(=O)n(C)ncc4c3P(C)(C)=O)n2)c(OC)cc1N1CCC(N2CCN(CCC3CCN(c4cc(F)c(C5CCC(=O)NC5=O)c(F)c4)CC3)CC2)CC1 (stereo not drawn) [Example 270, 3-(4-(4-(2-(4-(1-(4-((5-bromo-4-((5-(dimethylphosphoryl)-2-methyl-1-oxo-1,2-dihydrophthalazin-6-yl)amino)pyrimidin-2-yl)amino)-2-ethyl-5-methoxyphenyl)piperidin-4-yl)piperazin-1-yl)ethyl)piperidin-1-yl)-2,6-difluorophenyl)piperidine-2,6-dione]	5.43	89	84.2	24	91.36	6.97	17.1	84.6	–	–	–	–
CCc1cc(Nc2ncc(Br)c(Nc3ccc4nccnc4c3P(C)(C)=O)n2)c(OC)cc1N1CCC(N2CCN(C(=O)[C@H]3C[C@H](N(C)c4ccc(C5CCC(=O)NC5=O)cc4)C3)CC2)CC1 (stereo partly drawn) [Example 247, 3-(4-(((1r,3r)-3-(4-(1-(4-((5-bromo-4-((5-(dimethylphosphoryl)quinoxalin-6-yl)amino)pyrimidin-2-yl)amino)-2-ethyl-5-methoxyphenyl)piperidin-4-yl)piperazine-1-carbonyl)cyclobutyl)(methyl)amino)phenyl)piperidine-2,6-dione]	4.59	67	83.1	18.6	86.93	6.37	5.1	72.8	–	–	–	–
CCc1cc(Nc2ncc(Br)c(Nc3ccc4nccnc4c3P(C)(C)=O)n2)c(OC)cc1N1CCC(N2CCN(C3CC(c4ccc5c(c4)C(C)(C)C(=O)N5C4CCC(=O)NC4=O)C3)CC2)CC1 (stereo not drawn) [Example 317, 3-(5-(3-(4-(1-(4-((5-bromo-4-((5-(dimethylphosphoryl)quinoxalin-6-yl)amino)pyrimidin-2-yl)amino)-2-ethyl-5-methoxyphenyl)piperidin-4-yl)piperazin-1-yl)cyclobutyl)-3,3-dimethyl-2-oxoindolin-1-yl)piperidine-2,6-dione]	0.779	51.6	94.1	9.47	90.74	5.17	> 80	47	–	–	–	–
CCc1cc(Nc2ncc(Br)c(Nc3ccc4nccnc4c3P(C)(C)=O)n2)c(OC)cc1N1CCC(N2CCN(C[C@@H]3CCN(c4ccc(C5CCC(=O)NC5=O)cc4)C3)CC2)CC1 (stereo partly drawn) [Example 221, 3-(4-((S)-3-((4-(1-(4-((5-bromo-4-((5-(dimethylphosphoryl)quinoxalin-6-yl)amino)pyrimidin-2-yl)amino)-2-ethyl-5-methoxyphenyl)piperidin-4-yl)piperazin-1-yl)methyl)pyrrolidin-1-yl)phenyl)piperidine-2,6-dione]	5.15	75.3	84.2	36.1	87.37	15.7	6.46	61	–	–	–	–
CCc1ccc2c(P(C)(C)=O)c(Nc3nc(Nc4cc(CC)c(N5CCC(N6CCN(CCc7cccc8c7n(C)c(=O)n8C7CCC(=O)NC7=O)CC6)CC5)cc4OC)ncc3Br)ccc2n1 (stereo not drawn) [Example 516, 3-(4-(2-(4-(1-(4-((5-bromo-4-((5-(dimethylphosphoryl)-2-ethylquinolin-6-yl)amino)pyrimidin-2-yl)amino)-2-ethyl-5-methoxyphenyl)piperidin-4-yl)piperazin-1-yl)ethyl)-3-methyl-2-oxo-2,3-dihydro-1H-benzo[d]imidazol-1-yl)piperidine-2,6-dione]	–	–	–	–	–	–	–	–	78.66	1.11	94.8	1.83
